SMILES strings stand for the structures. “And” between values parts separate entries of the source, which are not always exact repeats. Identical values can stand only once.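 A five-concentration, 48-hour dose response in 96-well plates underlies each endpoint, interpolated linearly between surrounding concentrations. GI50: concentration for 50% inhibition of growth. TGI: concentration producing complete growth inhibition.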 Starred links: 1 amine or outer side, 2 acyl side, 3 side chain; linkers in the order of their positions; H or OH if unused. Non-standard residues stand in square brackets, D forms with d. Residues, ends and D or L forms follow the SMILES beside them. *: point of attachment. X14 = C/C=C/CC(C)C(O)[C@H](N[*:1])C(=O)[*:2]; Decanoyl = CCCCCCCCCC(=O)*; Leu(ol) = CC(C)C[C@H](N)CO; Iva = CC[C@](C)(N)C(=O)O; Aib = CC(C)(N)C(=O)O

37 compounds from PubChem BioAssay (NCI) can be followed below.

This experiment deals with MDA-MB-468 breast. In words: NCI tumour cell line growth inhibition, 48 h.

Consider `c1ccc(-c2cn(-c3ccccc3)c(-c3ccccc3)n2)cc1`, for which the GI50 was 10.1 µM and the TGI stood at 30.5 µM.
The like results for `CCOC(=O)[C@@H](C)C[C@H](Cc1ccccc1)NC(=O)c1csc([C@@H](C[C@H](C(C)C)N(C)C(=O)[C@@H](NC(=O)[C@H]2C[C@H](O)CCN2C)C(C)C)OC(C)=O)n1` were, in that order, less than 0.00167 µM and greater than 16.7 µM.
The like results for `FC(F)(F)c1ccc(-c2ncc(-c3ccc(C(F)(F)F)cc3)c(NCc3cc(C(F)(F)F)cc(C(F)(F)F)c3)n2)cc1` were, in that order, 3.2 µM and 15.5 µM.
The corresponding values for `NCCCNc1nc2ccc(Cl)cc2c2c(=O)c3cc(F)ccc3sc12` are 2.9 µM and 10.1 µM.
For `O=C(/C=C/c1cccc(S(=O)(=O)Nc2ccccc2)c1)NO`, the GI50 is 0.241 µM and the TGI worked out at 5.36 µM.
`O=Cc1ccc(-c2ccc(-c3ccc(C=O)o3)[se]2)o1`: the GI50 is 22.6 µM and the TGI is greater than 100 µM.
The like results for `O=C(Nc1ccc(I)cc1)c1cccc([N+](=O)[O-])c1O` were, in that order, 2.07 µM and 7.4 µM.
The like results for `CCCOc1ccc(/C=N/Nc2cc(C)nc3ccc(Cl)cc23)cc1` were, in that order, 1.69 µM and 3.19 µM.
Consider `CCC(C)CC(C)C(=O)c1c(O)ccn(O)c1=O` (centres undefined), for which the GI50 is 2.1 µM and the TGI turned out to be 9.47 µM.
The like results for `CCN1C(=O)N(CC)C2C1NC(=S)N2/N=C/C=C/c1ccccc1OC` (centres undefined) were, in that order, 0.0353 µM and 38.9 µM.
The like results for `NC(=N\N=C/c1ccc(Cl)cc1Cl)/C(N)=N\N=C/c1ccc(Cl)cc1Cl` were, in that order, 6.87 µM and greater than 100 µM.
As for `O=C1NC(=O)C(c2ccccc2)=C1Nc1ccccc1`, the GI50 was greater than 25 µM and the TGI was greater than 25 µM.
Turning to `O=C(Cc1ccc(Nc2ccnc(C(F)(F)F)c2)cc1)N/N=C/c1ccccc1O`, the GI50 is 3 µM and the TGI worked out at 39.3 µM.
The corresponding values for `COc1cc2c(cc1OCCCCn1c(-c3cccs3)nc3ccccc31)N=C[C@@H]1CCCN1C2=O` are 0.333 µM and 1.6 µM.
Regarding `CCC(C)(C)[C@H](NC(=O)[C@H]1CCCCN1C)C(=O)N(C)[C@H](C[C@@H](OC(C)=O)c1nc(C(=O)N[C@@H](Cc2ccccc2)C[C@H](C)C(=O)O)cs1)C(C)C`, the GI50 is less than 0.00167 µM and the TGI was less than 0.00167 µM.
Regarding `Cc1cc(C(O)(c2ccc(Nc3ccccc3)cc2)c2ccc(Nc3ccc(S(=O)(=O)O)cc3)cc2)ccc1N` (centres undefined), the GI50 is 0.48 µM and the TGI came out at 2.48 µM.
Take `CCCCN(CC)CCCCCCCCCCN1CCCc2cc(OC)ccc21`: the GI50 is 1.59 µM and the TGI was 3.58 µM.
Consider `O=c1[nH]c(F)nc2c1ncn2C1OC(CO)C(O)C1O` (centres undefined), for which the GI50 was greater than 100 µM and the TGI is greater than 100 µM.
As for `CN(CSc1ccc(Cl)cc1)c1ccc(CSc2ccc(Cl)cc2)cc1`, the GI50 is 1.85 µM and the TGI amounted to 5.07 µM.
The corresponding values for `O=C1/C(=C\c2ccccc2)CN(C(=O)c2ccccc2)C/C1=C\c1ccccc1` are 1.69 µM and 3.56 µM.
The corresponding values for `CC(C)OCc1cc(CN2CCN(c3cccc(Cl)c3)CC2)c(O)c2ncccc12` are 0.346 µM and 1.67 µM.
The like results for `CN1CCN(c2ccc(Nc3nc(NCCNS(=O)(=O)c4ccc5ccccc5c4)c4sccc4n3)cc2)CC1` were, in that order, 2.83 µM and 12.2 µM.
With `C/C=C/CC(C)C(O)[C@H](NC(=O)[C@@H]1CCCN1C(=O)C(C)(C)NC(=O)CCCCCCCCC)C(=O)N[C@@](C)(CC)C(=O)N[C@@H](CCC(N)=O)C(=O)N[C@H](CCC(N)=O)C(=O)NC(C)(C)C(=O)N[C@@](C)(CC)C(=O)N[C@@H](CCC(N)=O)C(=O)N[C@H](CC(C)C)C(=O)N[C@H](CO)CC(C)C` (stereo partly drawn) (Decanoyl-[Aib]P[X14][Iva]Q[dQ][Aib][Iva]Q[dL][Leu(ol)]), the GI50 is 0.0329 µM and the TGI turned out to be 0.26 µM.
The corresponding values for `Brc1ccc(Nc2nc3ccccc3nc2Nc2ccc(Br)cc2)cc1` are 0.365 µM and 2.58 µM.
On to `Cc1[nH]c(C(=O)Nc2ccc(S(=O)(=O)N3CCCCC3)cc2OCCOCCOCCOCCOCCOCCOCCOCCOCCOc2cc(S(=O)(=O)N3CCCCC3)ccc2NC(=O)c2[nH]c(C)c3c2CCCCC3=O)c2c1C(=O)CCCC2`, for which the GI50 is 0.191 µM and the TGI was found to be 0.794 µM.
The like results for `O=C1c2cccnc2C(=O)c2c1c(C(=O)OCCc1ccccn1)c1ccccn21` were, in that order, 1.84 µM and 5.06 µM.
The corresponding values for `CCCCCCc1cc2cc(-c3csc(/C=C/c4ccccc4)n3)c(=O)oc2cc1O` are 6.1 µM and 28.7 µM.
The corresponding values for `NC(=O)CCc1ccccc1Oc1nccc(-c2c(-c3ccc(F)cc3)ncn2C2CCNCC2)n1` are 10 µM and greater than 25 µM.
In the case of `N#C/C(=C\c1ccc(F)cc1)n1nc2cccc(F)c2n1`, the GI50 was 3.05 µM and the TGI was greater than 100 µM.
For `Oc1ccc(Cc2ccc(O)c(C3CC(c4ccc(Cl)cc4)=NN3)c2)cc1C1CC(c2ccc(Cl)cc2)=NN1` (centres undefined), the GI50 was 2.85 µM and the TGI was 9.44 µM.
The like results for `FC(F)(F)c1cc(-c2ncn(/C=C\c3nnco3)n2)cc(C(F)(F)F)c1` were, in that order, 0.0854 µM and 0.74 µM.
Turning to `COC(=O)[C@@H](C)C[C@H](Cc1ccccc1)NC(=O)c1csc([C@@H](C[C@H](C(C)C)N(C)C(=O)C2(NC(=O)[C@H]3CCCCN3C)CCC2)OC(C)=O)n1`, the GI50 was 0.00123 µM and 0.0025 µM; the TGI was greater than 25 µM.
Take `COc1ncc(-c2ccc3nccc(C#CCN4CCN(S(C)(=O)=O)CC4)c3c2)cc1NS(=O)(=O)c1ccc(F)cc1F`: the GI50 is 0.0198 µM and the TGI was found to be 0.122 µM.
As for `O=C(O)c1ccc(C(=O)O)c(C(=O)O)c1.[NH-]C1CCCCC1[NH-].[Pt+2]`, the GI50 is 35.7 µM and the TGI was greater than 100 µM.
The corresponding values for `COc1ccc(C2CC(c3ccc4ccccc4c3)=NN2c2nc(O)c(C3=c4cc(OC)ccc4=NC3=O)s2)cc1` (centres undefined) are 0.0462 µM and 0.2 µM.
For `COc1cc(/C=C/C(=O)c2c(C)nc3ccccc3c2C)ccc1OCCCCOc1cc2c(cc1OC)C(=O)N1CCC[C@H]1C=N2`, the GI50 was 0.235 µM and the TGI was 0.625 µM.
The like results for `O=C(NS(=O)(=O)c1ccc(NC[C@H]2COCCO2)c([N+](=O)[O-])c1)c1ccc(N2CCN(CC3=C(c4ccc(Cl)cc4)CC4(CCC4)CC3)CC2)cc1Oc1cnc2[nH]ccc2c1` were, in that order, 1.79 µM and 4.35 µM.
